Measured values published in paper PMC4685510, “A Cell Biologist’s Field Guide to Aurora Kinase Inhibitors” (Frontiers in Oncology, 2015).
Like-named read-outs stand apart in the source and are kept apart here.

Assays:
[1] = molecular target: T1, 363 human kinases (including Aurora A/B/C) (Homo sapiens, UniProt Q9UQB9); test: biochemical; assay type: biochemical; settings: Aurora C, [ATP] 30 µM
T1 sequence (Q9UQB9 1-309): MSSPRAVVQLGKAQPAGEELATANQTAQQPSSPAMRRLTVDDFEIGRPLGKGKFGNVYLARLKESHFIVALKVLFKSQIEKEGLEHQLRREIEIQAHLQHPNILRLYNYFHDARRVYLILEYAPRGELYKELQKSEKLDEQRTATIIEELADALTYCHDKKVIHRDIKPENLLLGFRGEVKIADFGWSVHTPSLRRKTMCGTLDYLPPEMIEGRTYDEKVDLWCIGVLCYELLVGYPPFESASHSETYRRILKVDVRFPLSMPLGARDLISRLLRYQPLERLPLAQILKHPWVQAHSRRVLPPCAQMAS
Source text: (§1) However, the Aurora A/B selectivity ratios derived from our in vitro and in vivo data can be compared to prioritize inhibitors.

[2] = system: pAuroraA(Thr 288) in HeLa cells; test: Immunoblotting of Aurora A activation loop phosphorylation; assay type: cell-based, human; settings: for Effect on pAuroraA(Thr 288): dose–response; for IC50: Homo sapiens, read-out: IC50 pAuroraA(Thr 288)
[3] = molecular target: Aurora A-TPX2; settings: ref 61; read-out: Aurora A-TPX2 Ki (Published); cited from earlier work
[4] = molecular target: 363 human kinases (including Aurora A/B/C) (Homo sapiens, UniProt P00519); test: biochemical; assay type: biochemical; settings: ABL1, [ATP] 40 µM
Chain of 363 human kinases (including Aurora A/B/C) (Homo sapiens, UniProt P00519) (P00519 whole entry): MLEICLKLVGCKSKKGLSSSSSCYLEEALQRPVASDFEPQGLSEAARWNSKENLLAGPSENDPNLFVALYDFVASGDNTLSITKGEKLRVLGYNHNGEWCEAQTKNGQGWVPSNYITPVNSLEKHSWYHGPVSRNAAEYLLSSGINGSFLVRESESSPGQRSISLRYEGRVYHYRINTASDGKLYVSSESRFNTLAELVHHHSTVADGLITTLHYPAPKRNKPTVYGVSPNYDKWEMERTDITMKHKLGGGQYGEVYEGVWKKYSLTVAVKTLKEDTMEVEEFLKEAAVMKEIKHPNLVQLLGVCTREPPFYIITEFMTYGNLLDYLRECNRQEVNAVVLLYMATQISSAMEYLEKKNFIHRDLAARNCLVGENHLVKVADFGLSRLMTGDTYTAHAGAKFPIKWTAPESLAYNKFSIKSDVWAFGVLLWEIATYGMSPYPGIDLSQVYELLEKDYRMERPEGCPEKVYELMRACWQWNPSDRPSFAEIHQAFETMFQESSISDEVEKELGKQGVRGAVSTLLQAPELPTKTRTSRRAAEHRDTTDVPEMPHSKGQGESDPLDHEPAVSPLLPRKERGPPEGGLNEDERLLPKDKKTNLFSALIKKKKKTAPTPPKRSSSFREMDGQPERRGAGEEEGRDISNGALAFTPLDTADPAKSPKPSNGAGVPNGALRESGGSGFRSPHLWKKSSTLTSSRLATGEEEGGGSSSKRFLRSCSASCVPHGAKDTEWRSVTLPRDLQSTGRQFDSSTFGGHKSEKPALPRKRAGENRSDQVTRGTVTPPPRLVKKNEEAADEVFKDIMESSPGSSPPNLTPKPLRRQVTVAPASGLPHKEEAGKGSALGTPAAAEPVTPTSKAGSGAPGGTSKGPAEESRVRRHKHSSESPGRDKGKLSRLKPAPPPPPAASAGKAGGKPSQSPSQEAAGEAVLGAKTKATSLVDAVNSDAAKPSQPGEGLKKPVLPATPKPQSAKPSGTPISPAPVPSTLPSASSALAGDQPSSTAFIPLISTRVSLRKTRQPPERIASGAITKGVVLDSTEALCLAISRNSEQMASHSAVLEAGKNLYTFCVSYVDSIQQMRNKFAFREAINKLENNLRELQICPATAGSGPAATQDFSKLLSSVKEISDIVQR
Source text: as §1

[5] = molecular target: T2, 363 human kinases (including Aurora A/B/C) (Homo sapiens, UniProt P36888); test: biochemical; assay type: biochemical; settings: FLT3, [ATP] 50 µM
T2 sequence (P36888 27-993): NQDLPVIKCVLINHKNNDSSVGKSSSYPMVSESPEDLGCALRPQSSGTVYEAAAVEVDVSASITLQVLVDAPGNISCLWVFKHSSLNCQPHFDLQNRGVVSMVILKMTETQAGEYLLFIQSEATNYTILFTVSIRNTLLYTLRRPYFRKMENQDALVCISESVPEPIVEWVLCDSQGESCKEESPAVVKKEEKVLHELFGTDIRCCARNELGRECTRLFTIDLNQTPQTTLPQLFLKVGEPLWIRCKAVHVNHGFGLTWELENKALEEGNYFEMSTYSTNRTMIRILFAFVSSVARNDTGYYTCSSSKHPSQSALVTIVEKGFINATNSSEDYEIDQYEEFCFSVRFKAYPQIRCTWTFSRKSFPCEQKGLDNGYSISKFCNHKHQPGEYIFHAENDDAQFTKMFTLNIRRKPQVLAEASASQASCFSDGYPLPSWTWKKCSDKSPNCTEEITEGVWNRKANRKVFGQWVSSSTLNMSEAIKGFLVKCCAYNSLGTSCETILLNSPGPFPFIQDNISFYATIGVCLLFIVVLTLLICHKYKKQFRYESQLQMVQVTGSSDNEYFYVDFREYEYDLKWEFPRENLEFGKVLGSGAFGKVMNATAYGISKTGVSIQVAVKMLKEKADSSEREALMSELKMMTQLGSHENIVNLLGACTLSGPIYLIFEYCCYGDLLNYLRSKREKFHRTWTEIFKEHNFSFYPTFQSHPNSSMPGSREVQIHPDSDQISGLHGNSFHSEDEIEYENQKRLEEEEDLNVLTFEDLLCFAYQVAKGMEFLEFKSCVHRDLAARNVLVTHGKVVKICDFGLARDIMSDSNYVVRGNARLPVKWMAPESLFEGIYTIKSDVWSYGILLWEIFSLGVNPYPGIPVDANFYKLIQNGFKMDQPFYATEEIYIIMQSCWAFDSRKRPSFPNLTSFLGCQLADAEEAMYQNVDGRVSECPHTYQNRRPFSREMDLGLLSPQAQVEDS
Source text: as §1

[6] = molecular target: 363 human kinases (including Aurora A/B/C) (Homo sapiens, UniProt P48730); test: biochemical; assay type: biochemical; settings: CK1d, [ATP] 20 µM
Chain of 363 human kinases (including Aurora A/B/C) (Homo sapiens, UniProt P48730) (P48730 whole entry): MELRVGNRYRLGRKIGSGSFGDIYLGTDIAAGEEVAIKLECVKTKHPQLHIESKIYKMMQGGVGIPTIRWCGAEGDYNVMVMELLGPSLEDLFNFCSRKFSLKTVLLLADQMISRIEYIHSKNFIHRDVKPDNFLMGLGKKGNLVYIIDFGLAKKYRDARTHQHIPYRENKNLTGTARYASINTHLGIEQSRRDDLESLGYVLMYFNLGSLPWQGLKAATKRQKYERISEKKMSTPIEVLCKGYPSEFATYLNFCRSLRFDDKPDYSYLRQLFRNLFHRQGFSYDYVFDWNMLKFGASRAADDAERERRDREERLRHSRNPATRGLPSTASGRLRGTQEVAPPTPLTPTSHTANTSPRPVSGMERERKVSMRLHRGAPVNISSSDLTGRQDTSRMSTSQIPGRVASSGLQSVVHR
Source text: as §1

[7] = molecular target: T3, 363 human kinases (including Aurora A/B/C) (Homo sapiens, UniProt Q15831); test: biochemical; assay type: biochemical; settings: LKB1
T3 sequence (Q15831 1-433): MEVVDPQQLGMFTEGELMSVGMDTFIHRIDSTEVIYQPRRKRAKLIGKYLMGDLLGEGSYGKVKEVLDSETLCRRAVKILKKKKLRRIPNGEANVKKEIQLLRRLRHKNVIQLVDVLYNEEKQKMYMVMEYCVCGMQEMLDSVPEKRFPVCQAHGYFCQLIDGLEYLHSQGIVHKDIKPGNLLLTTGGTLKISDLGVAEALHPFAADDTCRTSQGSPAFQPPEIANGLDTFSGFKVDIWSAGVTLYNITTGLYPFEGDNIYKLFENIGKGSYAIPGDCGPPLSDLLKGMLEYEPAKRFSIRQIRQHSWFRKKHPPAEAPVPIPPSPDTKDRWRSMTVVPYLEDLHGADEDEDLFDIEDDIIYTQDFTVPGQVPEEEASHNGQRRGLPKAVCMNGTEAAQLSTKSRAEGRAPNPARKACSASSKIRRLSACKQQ
Source text: as §1

[8] = system: HeLa cells; test: G2 duration live imaging assay (GFP-PCNA; H2B-RFP), HeLa; assay type: cell-based, human
[9] = system: RPE1 cells; test: G2 duration live imaging assay (GFP-PCNA; H2B-RFP), RPE1; assay type: cell-based; settings: Homo sapiens, RPE-1, read-out: G2/M (G2 duration) IC50
[10] = system: U2OS cells; test: G2 duration live imaging assay (GFP-PCNA; H2B-RFP), U2OS; assay type: cell-based; settings: Homo sapiens, read-out: G2/M (G2 duration) IC50
[11] = molecular target: T4, Aurora B/INCENP^783–918 (Homo sapiens, UniProt Q96GD4); test: Aurora B/INCENP^783–918 kinase assay (ADP-Glo); assay type: biochemical
T4 construct: purchased SignalChem
T4 sequence (Q96GD4 whole entry): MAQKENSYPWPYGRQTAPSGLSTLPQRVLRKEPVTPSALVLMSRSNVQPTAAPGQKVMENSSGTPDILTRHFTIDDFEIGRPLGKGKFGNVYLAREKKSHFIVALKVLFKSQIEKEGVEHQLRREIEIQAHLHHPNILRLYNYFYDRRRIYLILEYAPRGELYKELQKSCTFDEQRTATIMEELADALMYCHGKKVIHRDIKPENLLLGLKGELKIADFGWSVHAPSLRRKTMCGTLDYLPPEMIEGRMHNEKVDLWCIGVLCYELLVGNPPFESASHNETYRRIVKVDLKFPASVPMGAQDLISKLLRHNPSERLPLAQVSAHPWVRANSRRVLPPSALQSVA
T4 sequence (Q9NQS7 783-918 partner limits assumed): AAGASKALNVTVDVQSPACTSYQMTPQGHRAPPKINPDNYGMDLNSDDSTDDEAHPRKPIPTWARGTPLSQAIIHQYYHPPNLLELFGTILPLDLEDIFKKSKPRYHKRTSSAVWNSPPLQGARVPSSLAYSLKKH

[12] = system: Aurora A; settings: ref 57; read-out: Aurora A IC50 (Published); cited from earlier work
[13] = system: HeLa, RPE1, and U2OS cells; test: Cellular proliferation analysis (ATPLite, 24 h); settings: HeLa, RPE1, U2OS; 24 h (Figure 4D, Figure S2B)
[14] = 100 nM, read-out: % Enzyme Activity (relative to DMSO controls)
[15] = 500 nM, read-out: % Enzyme Activity (relative to DMSO controls)
[16] = Homo sapiens, read-out: G2/M (G2 duration) IC50, HeLa
[17] = read-out: G2/M (G2 duration) IC50

CCn1cc(-c2ccnc3[nH]c(-c4cccc(CN(C)C)c4)cc23)c(-c2ccc(NC(=O)N(C)C)cc2)n1 [GSK1070916]
remaining activity at 0.1 µM [1, 14]: 39.7%
Effect on Aurora A activity (pAuroraA Thr 288) ([2]; immunoblot, 300 nM (Figure S6)): inhibited Aurora A activity
Effect on pAuroraA(Thr 288) ([2]; immunoblot): did not affect
Ki [3]: 492 nM

O=C(O)[C@]1(Cc2cccc(Nc3nccs3)n2)CC[C@@H](Oc2cccc(Cl)c2F)CC1 [MK-5108]
remaining activity at 0.1 µM [4, 14]: 15.6%
remaining activity at 0.5 µM [4, 15]: 1.92%
remaining activity at 0.1 µM [5, 14]: 58.2%
remaining activity at 0.5 µM [5, 15]: 30.9%
remaining activity at 0.1 µM [6, 14]: 100%
remaining activity at 0.5 µM [6, 15]: 86.8%
remaining activity at 0.1 µM [7, 14]: 76.6%
remaining activity at 0.5 µM [7, 15]: 47.4%
IC50 [8, 16]: 600 to 800 nM
IC50 [8, 17]: 816 nM
IC50 [9]: 877 nM
IC50 [10]: 995 nM
IC50 [2]: < 100 nM
Effect on pAuroraA(Thr 288) ([2]; immunoblot): completely eliminate Thr 288 phosphorylation

O=C(c1cccc(Cl)c1F)N1CCN(Cc2cccc(Nc3nccs3)n2)CC1 [MK-8745]
Ki ([11]; Aurora B INCENP^783-918 Ki (example dataset, Figure 2D), calculated from the example IC50): 58.8 nM
Ki ([11]; Aurora B-INCENP^783–918 Ki Mean ± SD, [ATP] = Km(ATP) (10 μM)): 66.8 ± 19.6 nM
IC50 ([11]; [ATP] = Km(ATP), example dataset): 118 nM
% Enzyme Activity (relative to DMSO controls) ([4]; 500 nM): 76.80%
remaining activity at 0.5 µM [4, 15]: 77.7%
% Enzyme Activity (relative to DMSO controls) ([5]; 500 nM): 88.10%
remaining activity at 0.5 µM [5, 15]: 88.4%
% Enzyme Activity (relative to DMSO controls) ([6]; 500 nM): 85.06%
remaining activity at 0.5 µM [6, 15]: 85.5%
% Enzyme Activity (relative to DMSO controls) ([7]; 500 nM): 25.85%
remaining activity at 0.5 µM [7, 15]: 26.1%
% Enzyme Activity (relative to DMSO controls) ([1]; 500 nM): 46.69%
remaining activity at 0.5 µM [1, 15]: 47.4%
IC50 [8, 16]: 600 to 800 nM
IC50 [8, 17]: 596 nM
IC50 [9]: 755 nM
IC50 [10]: 437 nM
IC50 ([2]; immunoblot, taxol-arrested mitotic lysates): < 100 nM
Effect on pAuroraA(Thr 288) ([2]; immunoblot): completely eliminate Thr 288 phosphorylation
IC50 [12]: 0.6 nM
Toxicity / cytotoxicity (cellular proliferation) [13]: not cytotoxic
